Source: patent US5624936A, “Inhibitors of farnesyl-protein transferase” (Merck & Co., Inc., priority 1996, dated 1997)
Counter-ions that a name gives are not always drawn.

Molecular target: T1, human FPTase (Homo sapiens, UniProt P49354+P49356)
T1 construct: made in house
Experiment: In vitro inhibition of human farnesyl-protein transferase (FPTase)
Format: biochemical
Details: 100 nM Ras-CVIM substrate, [3H]-FPP, 30 min; read-out: IC50, inhibitory activity against human FPTase

Structure (SMILES)	IC50
CC[C@H](C)[C@@H](CN1Cc2ccccc2C[C@H]1C(=O)N[C@@H](CCSC)C(=O)O)NC(=O)[C@@H]1CCC(=O)N1 [Example 3, Step B, N-[L-Pyroglutamyl-2(S)-amino-3(S)-methylpentyl]-1,2,3,4-tetrahydro-3(S)-isoquinolinecarbonyl-methionine trifluoroacetate]	< 10 µM
CC[C@H](C)[C@@H](CN1Cc2ccccc2C[C@H]1C(=O)N[C@@H](CCSC)C(=O)O)NC(=O)Cc1c[nH]cn1 [Examples 1. Step G, N-[(1H-imidazol-4-ylacetyl)-2(S)-amino-3(S)-methylpentyl]-1,2,3,4-tetrahydro-3(S)-isoquinolinecarbonyl-methionine trifluoroacetate]	< 10 µM
